In ChEMBL document CHEMBL1201862, “PubChem BioAssay data set” (2004):
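Results reflect a 48-hour exposure of cells in 96-well plates to compound at five concentrations. GI50: concentration for 50% inhibition of growth.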 Activity calls are given as the source filed them. No stated cut-off is given here; in the data, active = GI50 up to about 1.1 µM and inactive = higher.

Columns and labels:
Experiment in all cases: growth of human tumour cells (NCI), 48 h
TK-10 = system: TK-10
HOP-62 = system: HOP-62
DU-145 = system: DU-145
MCF7 = system: MCF7
EKVX = system: EKVX
HOP-92 = system: HOP-92
IGROV-1 = system: IGROV-1
NCI-H460 = system: NCI-H460
SNB-75 = system: SNB-75
OVCAR-3 = system: OVCAR-3
RXF 393 = system: RXF 393
HCT-15 = system: HCT-15
SF-268 = system: SF-268
SF-295 = system: SF-295
CCRF-CEM = system: CCRF-CEM
LOX IMVI = system: LOX IMVI
OVCAR-8 = system: OVCAR-8
A498 = system: A498
NCI-H226 = system: NCI-H226
HT-29 = system: HT-29

| Structure (SMILES) | GI50 (TK-10) | GI50 (HOP-62) | GI50 (DU-145) | GI50 (MCF7) | GI50 (EKVX) | GI50 (HOP-92) | GI50 (IGROV-1) | GI50 (NCI-H460) | GI50 (SNB-75) | GI50 (OVCAR-3) | GI50 (RXF 393) | GI50 (HCT-15) [µM] | GI50 (SF-268) | GI50 (SF-295) | GI50 (CCRF-CEM) | GI50 (LOX IMVI) | GI50 (OVCAR-8) | GI50 (A498) | GI50 (NCI-H226) | GI50 (HT-29) |
| --- | --- | --- | --- | --- | --- | --- | --- | --- | --- | --- | --- | --- | --- | --- | --- | --- | --- | --- | --- | --- |
| O=[N+]([O-])c1cccnc1-n1cnc2ccccc21 | > 100 µM (inactive) | > 100 µM (inactive) | > 100 µM (inactive) | > 100 µM (inactive) | > 100 µM (inactive) | > 100 µM (inactive) | > 100 µM (inactive) | > 100 µM (inactive) | > 100 µM (inactive) | 54.6 µM (inactive) | > 100 µM (inactive) | > 100 | > 100 µM (inactive) | > 100 µM (inactive) | > 100 µM (inactive) | > 100 µM (inactive) | > 100 µM (inactive) | > 100 µM (inactive) | > 100 µM (inactive) | > 100 µM (inactive) |
| CC[C@@]1(OC(=O)C(N)CCC(=O)O)C(=O)OCc2c1cc1n(c2=O)Cc2cc3ccccc3nc2-1 (stereo partly drawn) | 4.33 µM (inactive) | < 0.0124 µM (active) | < 0.01 µM (active) | < 0.01 µM (active) | 1.44 µM (inactive) | 0.615 µM (active) | 0.513 µM (active) | 0.0112 µM (active) | 0.0526 µM (active) | 0.417 µM (active) | 0.147 µM (active) | 0.453 | 0.0256 µM (active) | 0.0213 µM (active) | < 0.01 µM (active) | 0.0196 µM (active) | 0.117 µM (active) | 0.187 µM (active) | 0.0502 µM (active) | 0.261 µM (active) |
| CCCCCCCCCc1cc(-c2ccc(C=O)s2)sc1-c1ccc(C=O)s1 | 6.47 µM (inactive) | 27.7 µM (inactive) | 26.7 µM (inactive) | 14.3 µM (inactive) | 70.6 µM (inactive) | 27.9 µM (inactive) | 21 µM (inactive) | 25.1 µM (inactive) | 27 µM (inactive) | 16.7 µM (inactive) | 8.81 µM (inactive) | 24.8 | 34.8 µM (inactive) | 32.7 µM (inactive) | 2.23 µM (inactive) | 11.5 µM (inactive) | 10.4 µM (inactive) | 1.6 µM (inactive) | 3.04 µM (inactive) | 39.5 µM (inactive) |
| CCN(CC)CC(=O)Nc1c(C(N)=O)nnn1Cc1cc(Cl)c(C(=O)c2ccc(Cl)cc2)c(Cl)c1 | 22.8 µM (inactive) | 18.6 µM (inactive) | 30.8 µM (inactive) | 17.1 µM (inactive) | 27.2 µM (inactive) | 20.7 µM (inactive) | 21.4 µM (inactive) | – | 21 µM (inactive) | 16.9 µM (inactive) | 10.4 µM (inactive) | 16.6 | 19.2 µM (inactive) | 17.4 µM (inactive) | 18 µM (inactive) | 16.1 µM (inactive) | 17.7 µM (inactive) | 37.9 µM (inactive) | 14.4 µM (inactive) | 19.6 µM (inactive) |
| C1CCN2CC3CCCN4CCCC(C2C1)C34 (stereo not drawn) | > 100 µM (inactive) | > 100 µM (inactive) | > 100 µM (inactive) | > 100 µM (inactive) | > 100 µM (inactive) | > 100 µM (inactive) | > 100 µM (inactive) | > 100 µM (inactive) | 50.1 µM (inactive) | > 100 µM (inactive) | > 100 µM (inactive) | > 100 | > 100 µM (inactive) | > 100 µM (inactive) | > 100 µM (inactive) | > 100 µM (inactive) | > 100 µM (inactive) | > 100 µM (inactive) | > 100 µM (inactive) | > 100 µM (inactive) |
| NCCCCCCn1c(-c2ccc(Br)cc2)cs/c1=N\c1ccccc1 | 13.6 µM (inactive) | 16.8 µM (inactive) | 13.5 µM (inactive) | 5.21 µM (inactive) | 13.8 µM (inactive) | 12.7 µM (inactive) | – | 13.1 µM (inactive) | 11.9 µM (inactive) | 10.9 µM (inactive) | 10.9 µM (inactive) | 7.74 | 13.9 µM (inactive) | 16 µM (inactive) | 6.9 µM (inactive) | 2.53 µM (inactive) | 11.9 µM (inactive) | 17.9 µM (inactive) | 16.9 µM (inactive) | 5.9 µM (inactive) |
